The source of these data is paper PMC11066877, “Development and Characterization of Novel FAP-Targeted Theranostic Pairs: A Bench-to-Bedside Study” (Research, 2023).

The nature of series [1]: Stability of 177Lu-labeled radiopharmaceuticals in FBS and PBS. Conditions: 50% FBS and 50% PBS, checked at 2 h and 24 h. The series is classed as in vitro ADME. Here is the method: To perform ^68Ga-labeling, approximately 20 nmol of FD1, FD2, or FD3 was dissolved in 20 μl of dimethyl sulfoxide and 230 μl of sterile deionized water. This mixture was added to 400 μl of ^68GaCl3 solution (containing 37 MBq) in 0.1 M HCl, with pH adjusted to 4.0 using 0.1 M NH4OAC. The mixture was incubated at 100 °C for 10 min without any additional purification steps. For ^177Lu-labeling, high-purity radionuclide ^177LuCl3 in 0.04 M HCl (3.9 GBq in 97 μl) was purchased from ITM (Munich, Germany). ^177LuCl3 solution (555 MBq in 0.04 M HCl) was added to 500 μl of 1M NH4OAC (pH = 5), followed by the addition of 375 nmol of FD1, FD2, or FD3. The solution was shaken at a temperature of 100 °C for a duration of 30 min. Instant thin-layer chromatography (iTLC; Eckert & Ziegler Radiopharma Inc.) was used to evaluate the RCP of the final products. For iTLC, the mobile phase consisted of 1 M NH4OAC and methyl alcohol in a ratio of 1:1. The final solution must be adjusted to pH 7.0 before being injected into the experimental mice via the tail vein. The stability of ^177Lu-labeled radiopharmaceuticals was evaluated in a mixture of 50% FBS and 50% PBS at 2 h and 24 h after preparation. In the process of preparing each [^68Ga]Ga-DOTA-FD1 for clinical imaging, the end product underwent sterilization by passing it through a 0.22-μm Millipore filter.

Series [2] in a line: Ex vivo biodistribution of 177Lu-labeled radioligands in tumor-free nude mice. Conditions: mouse, blood, intravenous, 1.11 MBq, total radioactivity, 24 h p.i., read-out: accumulation in the blood pool (biodistribution). From the text: (§1) After imaging collection and image reconstruction, samples from euthanized experimental mice, including blood and multiple significant organs, were harvested and weighed. The radioactivity in each collected tissue was counted using an automated gamma counter (Wizard 2480, PerkinElmer) and the accumulation of radioactivity in different tissues and organs was quantified and expressed as %ID/g (mean ± SD). [^177Lu]Lu-DOTA-FD1 (~1.11 MBq, n = 3), [^177Lu]Lu-DOTA-FD2 (~1.11 MBq, n = 3), and [^177Lu]Lu-DOTA-FD3 (~1.11 MBq, n = 3) were injected into the tail vein of free nude mice at 6 h, 24 h, and 24 h for ex vivo biodistribution to verify the circulation time of the 3 probes in vivo. Biodistribution data from tumor-bearing mice injected with [^177Lu]Lu-DOTA-FD3 at 45 h (~1.11 MBq, n = 4) and 90 h (~1.11 MBq, n = 3) validated the prolonged enrichment of the probe at the tumor site. At the end of each probe imaging and radioactivity counting study, tumor tissues were fixed in paraformaldehyde tissue fixative. Briefly, sections of 10 μm were cut and stained for H&E following the standard protocols. IHC staining with a FAP antibody (ab227703, Abcam) was performed only on tumor tissues following accepted techniques.

Series [3] is described as follows: Ex vivo biodistribution of [177Lu]Lu-DOTA-FD3 in HT1080-FAP tumor models. Also noted: species or system mice. Conditions: nude (thymus-free), mouse, 1.11 MBq, total radioactivity.
Source text: as §1

For series [4], the system named is HT1080-FAP tumor. As to the kind of experiment: FAP-targeted radioligand therapy in HT1080-FAP tumor models. The class given is in vivo, mice. Here is the method:
(§2) HT1080-FAP tumor models with higher levels of FAP expression were utilized in this study. Tumor-bearing mice were subjected to therapy experiments when the tumor volume reached 50 to 180 mm^3. Tumor models with different tumor volumes were injected with different therapeutic doses. Mice bearing HT1080-FAP tumors of slightly larger tumor volumes were randomly assigned into 4 groups (n = 5 per group): control group and treatment groups with 800 μCi of [^177Lu]Lu-DOTA-FD1, 400 μCi of [^177Lu]Lu-DOTA-FD3, and 600 μCi [^177Lu]Lu-DOTA-FD3. Mice bearing HT1080-FAP tumors of slightly smaller tumor volumes were also divided into 4 groups (n = 6 per group): control group and treatment groups with 200 μCi of [^177Lu]Lu-DOTA-FD1, 200 μCi of [^177Lu]Lu-DOTA-FD2, and 200 μCi of [^177Lu]Lu-DOTA-FD3. Tumor volume and mice body weight were examined daily after a single-dose injection. Weight monitoring is expressed as a percentage of initial weight on the measurement day. Tumor volume was measured as half of the length × width squared times. Mice were euthanized when the tumor volume exceeded 1,500 mm^3, the tumor ruptured, or when it lost more than 20% of its body weight. T3M-4 tumor models with abundant stroma were established to validate the therapeutic efficacy of [^177Lu]Lu-DOTA-FD3. When the tumor volume grew to 100 to 150 mm^3, the mice were randomly divided into 2 groups (n = 7 per group): free ^177Lu treatment group and 500 μCi [^177Lu]Lu-DOTA-FD3 treatment group. Tumor volume and mice body weight were examined every 2 days.

For series [5], the system named is T3M-4 tumor. Kind of series: Radioligand therapy in T3M-4 pancreatic cancer models. The series is classed as in vivo, mice. Conditions: T3M-4 models. Here is the method: as §2, with “When the tumor volume grew to 100 to 150 mm^3, the mice were randomly divided into 2 groups (n = 7 per group): free ^177Lu treatment group and 500 μCi [^177Lu]Lu-DOTA-FD3 treatment group. Tumor volume and mice body weight were examined every 2 days.” left out

Setting [6] is: average tumor volume 180 mm^3 at onset, single dose 400 μCi or 600 μCi.

Where two headings read alike, the source gives them in different places.

Consider `CCCCCC(=O)N[C@H]1CSCc2cc(CSCCNC(=O)[C@H](CCCCNC(=O)CCCc3ccc(I)cc3)NC(=O)[C@@H](NC(=O)[C@H](CCSC)NC(=O)CN3CCN(CC(=O)O)CCN(CC(=O)O)CCN(CC(=O)O)CC3)C(C)C)cc(c2)CSC[C@@H](C(=O)O)NC(=O)[C@H](Cc2ccccc2)NC(=O)[C@H](CCC(N)=O)NC(=O)[C@H]([C@@H](C)O)NC(=O)[C@@H]2CCCN2C(=O)[C@@H]2CCCN2C1=O` [[^177Lu]Lu-DOTA-FD3, metal not drawn], for which the “stable in FBS and PBS, no significant demetallation” value in series [1] is “at least 24 h”. Moreover, the tissue uptake at 24 h in series [2] is 28.1 ± 3.52 %ID/g. Also, the tissue uptake at 45 h turned out to be 10.5 ± 1.02 %ID/g in series [3] (45 h, read-out: tumor uptake (biodistribution)) and 16.3 ± 2.5 %ID/g in series [3] (blood, 45 h p.i., read-out: blood pool retention (biodistribution)). For the same compound, the tissue uptake at 90 h in series [3] (90 h, read-out: tumor uptake (biodistribution)) was determined as 12.4 ± 3.12 %ID/g; in series [3] (blood, 90 h p.i., read-out: blood pool retention (biodistribution)), 11.5 ± 1.54 %ID/g. Further, the “tumor growth at the end of the study” value in series [4] (average tumor volume 50 mm^3 at onset, single dose 200 μCi) is given as “substantially inhibited the tumor growth”. Besides, the “mice that acquired complete response (CR)” value in series [4] (average tumor volume 50 mm^3 at onset, single dose 200 μCi, 6 mice per group) is given as 3 out of the 6. Moreover, in series [4] (setting [6]), the tumor relapse entry is given as “relapsed from day 14 onward”. For the same compound, the “tumor volume change after treatment” value in series [4] (setting [6]) was “began to shrink from day 2”. The “mice weight versus free 177Lu treatment group” value in series [5] (500 μCi) is “slightly dropped”. Also, the “tumor volume until the end of the observation” value in series [5] (tumor volume around 135 mm^3 at onset, [177Lu]Lu-DOTA-FD3 at 500 μCi) is “satisfactorily controlled”.
